Molecular target: human NEP (Homo sapiens (Human), UniProt P08473)
Test: In vitro enzyme inhibition assay at human NEP (Assay 1)
Assay type: biochemical
Details: pKi values at human NEP, reported as ranges

CC(C)COC(=O)C(=O)N[C@H](Cc1ccc(-c2cc(Cl)ccc2Cl)cc1)C[C@@H](O)C(=O)O [Example 3D, (2R,4R)-5-(2′,5′-Dichlorobiphenyl-4-yl)-2-hydroxy-4-(isobutoxyoxalylamino)-pentanoic Acid]
pKi: ≥9

From patent publication US11547687B2, “Neprilysin inhibitors” (THERAVANCE BIOPHARMA R&D IP, LLC, priority 2011, dated 2023)
